Data: the SangsterLogP compilation

Key:
[1] = method code SF, from DOI: 10.1016/0021-9673(91)85016-9; conditions: pH 7.0
[2] = not given; remark: listed apart in the source
[3] = not given; remark: listed apart in the source
[4] = not given; remark: listed apart in the source
[5] = method code SF-AS, from DOI: 10.1016/0304-4165(70)90354-5, PMID: 5474547; conditions: pH 7.4
[6] = method code SF-RC, from DOI: 10.1002/jps.2600840617, PMID: 7562417
[7] = method code SF, from PMID: 23342302; conditions: pH 7.4
[8] = method code SF-RC, from DOI: 10.1016/s0969-8051(98)00005-5, PMID: 9720665; conditions: pH 7.0
[9] = method code SF, from DOI: 10.1016/0006-2952(79)90429-5, PMID: 444298
[10] = not given; remark: listed apart in the source
[11] = not given; remark: listed apart in the source
[12] = method code …, from Wang, X.; Song, H. (1996). Determination of octanol-water partition coefficients of organic pollutants by using the dynamic coupled-column liquid chromatographic technique. Transactions of Tianjin …
[13] = method code SF-AS, from DOI: 10.1021/es00082a014; conditions: pH 7.0
[14] = not given; remark: listed apart in the source
[15] = not given; remark: listed apart in the source
[16] = method code SF-AS, from DOI: 10.1021/jm00069a002, PMID: 8355246; conditions: pH 7.4
[17] = method code SF-HPLC, from DOI: 10.1021/jm010289a, PMID: 11754587; conditions: pH 7.0
[18] = method code SF, from DOI: 10.1021/jm00217a007, PMID: 17751; conditions: pH 9.0
[19] = method code SF-HPLC, from DOI: 10.1248/bpb.16.154, PMID: 8364451
[20] = method code G-HPLC, from DOI: 10.6028/nbs.ir.81-2406
[21] = method code SF, from DOI: 10.1021/jm00010a006, PMID: 7752187
[22] = not given; remark: listed apart in the source
[23] = method code SF, from DOI: 10.1248/cpb.33.282, PMID: 4006019; conditions: pH 1.0
[24] = method code SF-AS, from DOI: 10.1111/j.2042-7158.1984.tb04385.x, PMID: 6145771; conditions: pH 9.2
[25] = method code SF-GLC, from DOI: 10.1016/0147-6513(82)90020-3, PMID: 7106034
[26] = from Bundgaard, H.; Hansen, A.; Larsen, C. (1979). Prodrugs as drug delivery systems. VII. Rapid cyclization of methyldiethylthiomalonurate to thiobarbital in aqueous solution. Archiv der Pharmazie - …; conditions: pH 3.5
[27] = not given; remark: listed apart in the source
[28] = method code SF-AS, from DOI: 10.1002/chin.198419165, PMID: 6653771; conditions: pH 2.5
[29] = method code SF-RC, from DOI: 10.1016/0048-3575(88)90037-5
[30] = method code SF-AS, from DOI: 10.1007/bf01067967, PMID: 3820093; conditions: pH 7.5
[31] = not given; remark: listed apart in the source
[32] = method code SF-GLC, from Hermens, J., & De Bruijn, J. (1987). A QSAR study for fish toxicity data of organophosphorus compounds. QSAR in Drug Design and Toxicology, 10, 343-345.
[33] = method code SF-AS, from DOI: 10.1002/ps.2780370107; conditions: pH 0.0
[34] = method code SF-AS, from DOI: 10.1002/jps.2600600712, PMID: 4398902
[35] = not given; remark: listed apart in the source
[36] = method code SF-RC, from DOI: 10.1016/0006-2952(75)90159-8, PMID: 1168477
[37] = not given; remark: listed apart in the source
[38] = method code SF-AS, from DOI: 10.1002/qsar.19870060104
[39] = method code SF-HPLC, from DOI: 10.1016/j.bmc.2011.10.084, PMID: 22130421; conditions: pH 7.4
[40] = method code SF, from Zheng, Y.; Wu, F.; Li, Y. (2001). Determination of ionization constant and partition coefficient of monoxidine. Journal of Shenyang Pharmaceutical University, 18(1)37-39.
[41] = method code SF-HPLC, from DOI: 10.1124/dmd.30.12.1497, PMID: 12433825; conditions: pH 7.4
[42] = method code SF, from DOI: 10.1002/jps.2600620102, PMID: 4566530
[43] = not given; remark: listed apart in the source
[44] = method code SF, from DOI: 10.1515/bc.2002.085, PMID: 12108546
[45] = method code SF-HPLC, from PMID: 1293941
[46] = method code SF-EPR, from DOI: 10.1016/0003-9861(82)90097-2, PMID: 6284047; conditions: pH 7.4
[47] = method code SF-POL, from DOI: 10.1111/j.1365-2044.1990.tb14524.x, PMID: 2316851; conditions: pH 7.1
[48] = method code SF-AS, from DOI: 10.1021/jm00307a001, PMID: 5637185
[49] = method code SF-GLC, from DOI: 10.1007/bf00212402, PMID: 7663085

With `O=c1ccn2c(n1)OC1C(O)C(CO)OC12` (stereo not given) the logD [1] was -2.85.

`CCCCCC(CCO)C1N=N1` (stereo not given) showed a logP of 2.52.

`CCOC(=O)c1ccc(O)cc1` gave a logP [2] of 2.25.

With `CC(Oc1ccc(Cl)cc1Cl)C(=O)O` (stereo not given) the logP [3] was 3.43.

Work on `C1COCCOCCOCCO1` yielded a logP [4] of -0.04.

In the case of `Cc1cc2ccccc2[nH]1`, the logD [5] is reported as 2.53.

For `Nc1ccn(C[C@@H](CO)OCP(=O)(O)O)c(=O)n1`, the logP [6] was -3.17.

In the case of `Cc1c(COC(CO)CF)[nH]c(=O)[nH]c1=O` (stereo not given), the logD [7] is reported as -0.87.

`OC1OC2COC(CI)OC2C(O)C1O` (stereo not given) gave a logD [8] of 1.1.

With `O=NN(CCCl)C(=O)N[C@@H]1O[C@H](CO)[C@@H](O)[C@H](O)[C@H]1O` the logP [9] was -1.02.

`CCOP(=S)(OCC)Oc1nc(Cl)c(Cl)cc1Cl` gave a logP [10] of 4.77.

Work on `CCCCc1ccncc1` yielded a logP [11] of 3.13.

In the case of `ClC1(Cl)C2(Cl)C3(Cl)C4(Cl)C(Cl)(Cl)C5(Cl)C3(Cl)C1(Cl)C5(Cl)C24Cl` (stereo not given), the logP [12] is reported as 6.69.

For `Cc1cc(C)c(N)cc1C`, the logD [13] was 2.29.

Compound `CC(C)Nc1nc(Cl)nc(NC2CC2)n1` has a logP [14] of 3.06.

In the case of `COc1c(Cl)c(Cl)c(Cl)c(OC)c1OC`, the logP [15] is reported as 4.8.

Compound `Cc1c(O)c(=O)ccn1C(C)C` has a logD [16] of 0.05.

`CN1C(=O)C(=O)c2ccccc21` showed a logD [17] of 0.63.

Compound `CNC(=S)NCCCCc1c[nH]cn1` has a logD [18] of 0.51.

For `O=C(O)CNC(=O)c1ccccc1O`, the logP [19] was 0.95.

Work on `Cc1ccc(C)c(O)c1C` yielded a logP [20] of 2.67.

In the case of `c1ccc(Cn2cnnc2)cc1`, the logP [21] is reported as 0.74.

In the case of `CCCCCCCCO`, the logP [22] is reported as 3.

For `CCCCCC(=O)N(C)CC(=O)O`, the logD [23] was 1.14.

For `CNC(=S)NCCSCc1cncn1C`, the logD [24] was 0.32.

In the case of `CCCCOCCOCCSC#N`, the logP [25] is reported as 1.68.

Compound `CCC(CC)(C(=O)NC(N)=S)C(=O)OC` has a logD [26] of 1.82.

`COc1cc(O)cc(C(C)=O)c1` showed a logP [27] of 1.85.

In the case of `N#CCNc1ccccc1C(=O)O`, the logD [28] is reported as 1.75.

In the case of `CC(C)Nc1nc(Cl)nc(NCCO)n1`, the logP [29] is reported as 0.78.

Compound `CCCc1ccc(N)cc1` has a logD [30] of 2.4.

`NC(N)=Nc1nc(CSCCC(N)=NS(N)(=O)=O)cs1` gave a logP [31] of -0.56.

`COP(=S)(OC)Oc1ccc(Cl)cc1C#N` gave a logP [32] of 3.41.

With `CCOP(=O)(O)Cc1ccc(Cl)cc1` the logD [33] was 1.6.

Work on `CCN1CCCCCC1=O` yielded a logP [34] of 0.65.

With `CCCOc1ccc(O)cc1` the logP [35] was 2.31.

For `C=CCN(C(C)=O)C(C)C`, the logP [36] was 1.14.

Compound `CCNc1nc(Cl)nc(NC(C)(C)C#N)n1` has a logP [37] of 2.18.

In the case of `O=c1ccoc2cc(O)ccc12`, the logP [38] is reported as 1.44.

Compound `Cc1ncc([N+](=O)[O-])n1Cc1cn(CCF)nn1` has a logD [39] of -0.38.

In the case of `COc1nc(C)nc(Cl)c1NC1=NCCN1`, the logP [40] is reported as 1.08.

In the case of `CCOc1ccccc1C(N)=O`, the logD [41] is reported as 1.34.

For `Cc1cc(C)c2oc(=O)sc2c1`, the logP [42] was 3.25.

Work on `CCOC(=O)c1ccccc1O` yielded a logP [43] of 2.23.

`CCCOC(=O)C1(C)CCC=[N+]1[O-]` (stereo not given) showed a logP [44] of -0.3.

`CCOC(=O)c1ccc(N)cc1` showed a logP [45] of 1.87.

With `CCC1(C)OCC(C)(C)N1O` (stereo not given) the logD [46] was 0.57.

`NC(=S)NN=C1C=CC(=NNC(N)N)C=C1` gave a logD [47] of -1.4.

Compound `C#CC1(O)CCCCC1` has a logP [48] of 1.73.

With `ClC1=C(Cl)[C@]2(Cl)C3C(Cl)C(Cl)C(Cl)C3[C@@]1(Cl)C2(Cl)Cl` (stereo not given in full) the logP [49] was 6.22.
